Test results from patent USRE38132E1, “Phenylpyrrolidines, phenylimidazolidines,3-phenyl-1,3-oxizolidines and 3-phenyl-1,3-thiazolidines and their use in the treatment of inflammatory disease” (Boehringer Ingelheim Pharmaceuticals, Inc., priority 1997, dated 2003).

Each molecule was assayed against T1, interaction of ICAM-1 with the Leukointegrin CD18/CD11a (LFA-1) (Homo sapiens, UniProt P05107+P20701) (assay: Assay to determine inhibition of LFA-1 binding to ICAM-1 (immunopurified LFA-1 on plate-bound sICAM-1, ELISA readout)). Conditions: not given.
T1 construct: endogenous in cells; sICAM-1: made in house, secreted from transfected CHO DUX cells
T1 sequence (P20701 26-1170): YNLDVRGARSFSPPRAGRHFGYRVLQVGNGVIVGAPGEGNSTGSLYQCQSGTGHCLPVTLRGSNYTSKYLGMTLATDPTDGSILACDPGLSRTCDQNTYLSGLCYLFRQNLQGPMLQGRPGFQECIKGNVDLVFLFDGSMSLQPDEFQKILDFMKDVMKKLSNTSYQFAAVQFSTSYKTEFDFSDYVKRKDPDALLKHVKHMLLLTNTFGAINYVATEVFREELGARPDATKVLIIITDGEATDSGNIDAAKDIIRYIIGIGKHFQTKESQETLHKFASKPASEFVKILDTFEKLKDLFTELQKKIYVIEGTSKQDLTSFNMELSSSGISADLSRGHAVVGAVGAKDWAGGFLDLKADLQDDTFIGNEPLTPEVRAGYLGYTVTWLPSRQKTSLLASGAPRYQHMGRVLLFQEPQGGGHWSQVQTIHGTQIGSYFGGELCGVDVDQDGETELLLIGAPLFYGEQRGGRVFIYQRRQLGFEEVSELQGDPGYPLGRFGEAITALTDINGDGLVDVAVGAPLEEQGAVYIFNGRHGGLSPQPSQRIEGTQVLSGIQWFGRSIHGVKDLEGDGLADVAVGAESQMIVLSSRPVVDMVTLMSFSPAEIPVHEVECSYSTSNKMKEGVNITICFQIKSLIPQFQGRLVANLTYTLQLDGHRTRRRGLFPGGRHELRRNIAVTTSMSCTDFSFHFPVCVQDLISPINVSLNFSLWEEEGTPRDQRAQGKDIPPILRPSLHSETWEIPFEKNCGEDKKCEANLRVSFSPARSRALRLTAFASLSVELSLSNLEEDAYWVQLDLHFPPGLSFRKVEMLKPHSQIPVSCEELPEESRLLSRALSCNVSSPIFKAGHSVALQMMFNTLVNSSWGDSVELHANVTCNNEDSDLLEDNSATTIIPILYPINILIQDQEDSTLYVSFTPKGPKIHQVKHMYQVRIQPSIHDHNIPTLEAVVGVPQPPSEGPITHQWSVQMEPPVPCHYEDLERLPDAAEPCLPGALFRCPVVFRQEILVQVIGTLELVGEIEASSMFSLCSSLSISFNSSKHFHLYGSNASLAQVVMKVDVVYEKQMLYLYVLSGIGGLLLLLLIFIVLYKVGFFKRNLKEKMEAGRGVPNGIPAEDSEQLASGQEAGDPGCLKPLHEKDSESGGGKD
T1 sequence (P05107 23-769): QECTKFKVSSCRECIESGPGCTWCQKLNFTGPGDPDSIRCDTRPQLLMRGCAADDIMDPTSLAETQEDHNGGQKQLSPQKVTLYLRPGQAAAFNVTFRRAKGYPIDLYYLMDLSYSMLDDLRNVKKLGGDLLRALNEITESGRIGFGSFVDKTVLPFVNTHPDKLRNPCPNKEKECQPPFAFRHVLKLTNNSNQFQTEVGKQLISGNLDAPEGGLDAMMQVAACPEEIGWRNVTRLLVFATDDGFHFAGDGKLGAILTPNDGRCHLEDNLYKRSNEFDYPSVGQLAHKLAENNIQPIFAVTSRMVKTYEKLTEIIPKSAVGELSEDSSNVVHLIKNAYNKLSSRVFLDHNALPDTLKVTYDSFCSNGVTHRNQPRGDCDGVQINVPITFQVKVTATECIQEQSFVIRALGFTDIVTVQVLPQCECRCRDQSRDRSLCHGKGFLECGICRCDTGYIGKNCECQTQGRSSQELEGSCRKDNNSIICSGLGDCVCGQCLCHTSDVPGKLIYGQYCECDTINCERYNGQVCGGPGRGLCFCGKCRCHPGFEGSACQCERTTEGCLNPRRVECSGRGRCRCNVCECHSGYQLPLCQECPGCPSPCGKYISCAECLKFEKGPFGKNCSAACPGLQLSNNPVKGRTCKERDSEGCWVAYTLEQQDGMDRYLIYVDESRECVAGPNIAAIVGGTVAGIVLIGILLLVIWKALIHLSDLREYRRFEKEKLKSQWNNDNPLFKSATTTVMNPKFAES

Kd [nM] | SMILES
1090 | C[C@@]1(Cc2ccc(Br)cc2)CC(=O)N(c2cc(Cl)cc(Cl)c2)C1=O [Example 278]
1790 | C[C@@]1(Cc2ccc(Br)cc2)C(=O)N(c2cc(Cl)cc(Cl)c2)C(=O)N1C(=O)[C@@H](N)CO [Example 233]
80 | C[C@@]1(Cc2ccc(Br)cc2)C(=O)N(c2cc(Cl)cc(Cl)c2)C(=O)N1COC(=O)C(CO)CO [Example 238]
70 | C[C@]1(Cc2ccc(Br)cc2)CC(=O)N(c2cc(Cl)cc(Cl)c2)C1=O [Example 277]
270 | C[C@@]1(Cc2ccc(Br)cc2)C(=O)N(c2cc(Cl)cc(Cl)c2)C(=O)N1CCCCCCP(=O)(O)O [Example 220]
~2000 | CC1(Cc2ccc(-c3ccccc3C(F)(F)F)cc2)NC(=O)N(c2cc(Cl)cc(Cl)c2)C1=O (stereo not shown) [Example 213]
410 | C[C@@]1(Cc2ccc(Br)cc2)C(=O)N(c2cc(Cl)cc(Cl)c2)C(=O)N1C(=O)[C@@H]1CCCN1 [Example 234]
940 | CC1(Cc2ccc(-c3cc4ccccc4o3)cc2)NC(=O)N(c2cc(Cl)cc(Cl)c2)C1=O (stereo not shown) [Example 209]
1780 | O=C1NC(CCc2ccc(I)cc2)C(=O)N1c1cc(Cl)cc(Cl)c1 (stereo not shown) [Example 217]
280 | C[C@@]1(Cc2ccc(Br)cc2)C(=O)N(c2cc(Cl)cc(Cl)c2)C(=O)N1Cc1ccccc1C(=O)O [Example 239]

SMILES | Kd [nM]
C[C@]1(Cc2ccc(C(=O)c3ccccc3)cc2)NC(=O)N(c2cc(Cl)cc(Cl)c2)C1=O [Example 216] | 500

Same assay, conditions: values marked e approximated from incomplete dose-response curve

SMILES | Kd [nM]
Cc1ccccc1CC1(C)C(=O)N(c2cc(Cl)cc(Cl)c2)C(=O)N1C (stereo not shown) [Example 142] | 430
Cc1cccc(CC2(C)C(=O)N(c3cc(Cl)cc(Cl)c3)C(=O)N2C)c1 (stereo not shown) [Example 143] | 1200
COC(=O)c1ccc(CC2(C)NC(=O)N(c3cc(Cl)cc(Cl)c3)C2=O)cc1 (stereo not shown) [Example 46] | 2260
O=C1NC(Cc2ccc(Br)cc2)C(=O)N1c1cc(Cl)cc(Cl)c1 (stereo not shown) [Example 19] | 760
CC1(Cc2cc(F)cc(F)c2)NC(=O)N(c2cc(Cl)cc(Cl)c2)C1=O (stereo not shown) [Example 58] | 2850
CC1(Cc2cccc(OC(F)(F)F)c2)NC(=O)N(c2cc(Cl)cc(Cl)c2)C1=O (stereo not shown) [Example 68] | 2580
C[C@H](O)CN1C(=O)N(c2cc(Cl)cc(Cl)c2)C(=O)[C@@]1(C)Cc1ccc(Br)cc1 [Example 116] | 190
CN1C(=O)N(c2cc(Cl)cc(Cl)c2)C(=O)C1(C)Cc1ccc2c(c1)OCO2 (stereo not shown) [Example 160] | 640
CN1C(=O)N(c2cc(Cl)cc(Cl)c2)C(=O)C1(C)Cc1ccccc1Br (stereo not shown) [Example 145] | 1050
CC1(Cc2ccccc2)CC(=O)N(c2cc(Cl)cc(Cl)c2)C1=O (stereo not shown) [Example 75] | 290
CCCCOc1cc(CC2(C)NC(=O)N(c3cc(Cl)cc(Cl)c3)C2=O)nc(C(F)(F)F)c1 (stereo not shown) [Example 63] | ~3000
O=C1NC(Cc2ccccc2)C(=O)N1c1cc(Cl)c(Cl)c(Cl)c1 (stereo not shown) [Example 70] | 1890
CCCN1C(=O)N(c2cc(Cl)cc(Cl)c2)C(=O)C1(C)Cc1ccc(Br)cc1 (stereo not shown) [Example 106] | 140
CN1C(=S)N(c2cc(Cl)cc(Cl)c2)C(=S)C1(C)Cc1ccc(Br)cc1 (stereo not shown) [Example 79] | 430
CC(C)(C)OC(=O)CN1C(=O)N(c2cc(Cl)cc(Cl)c2)C(=O)C1(C)Cc1ccccc1 (stereo not shown) [Example 91] | 430
CN1C(=O)N(c2cccc(Cl)c2)C(=O)[C@@]1(C)Cc1ccc(Br)cc1 [Example 101] | 680
COc1cccc(CN2C(=O)N(c3cc(Cl)cc(Cl)c3)C(=O)[C@@]2(C)Cc2ccc(Br)cc2)n1 [Example 112] | 390
CN1C(=O)N(c2cc(Cl)cc(Cl)c2)C(=O)C1(C)Cc1ccccc1C#N (stereo not shown) [Example 152] | 2660
CN1C(=O)N(c2cc(Cl)cc(Cl)c2)C(=O)C1(C)Cc1cccc(C#N)c1 (stereo not shown) [Example 153] | 2190
C[C@H]1C(=O)N(c2cc(Cl)cc(Cl)c2)C(=O)[C@]1(C)Cc1ccccc1 [Example 74] | 670
CC1(Cc2ccc(Br)cc2)NC(=S)N(c2cc(Cl)cc(Cl)c2)C1=S (stereo not shown) [Example 78] | 340
Cc1ccc(CC2(C)C(=O)N(c3cc(Cl)cc(Cl)c3)C(=O)N2C)cc1 (stereo not shown) [Example 144] | 350
CN1C(=O)N(c2cc(Cl)cc(Cl)c2)C(=O)C1(C)Cc1cccc(F)c1 (stereo not shown) [Example 147] | 340
CN1C(=O)N(c2cc(Cl)cc(Cl)c2)C(=O)C1(C)Cc1ccccc1Cl (stereo not shown) [Example 156] | 690
CCCC1(Cc2ccccc2)NC(=O)N(c2cc(Cl)cc(Cl)c2)C1=O (stereo not shown) [Example 31] | 1360
CC(C)N1C(=O)N(c2cc(Cl)cc(Cl)c2)C(=O)C1(C)Cc1ccc(Br)cc1 (stereo not shown) [Example 139] | 790

The remaining lines, values ahead:

Kd [nM] | SMILES
600 | CN1C(=O)N(c2cc(Cl)cc(Cl)c2)C(=O)C1(C)Cc1c(F)c(F)c(F)c(F)c1F (stereo not shown) [Example 167]
340 | CC(=O)Nc1cccc(-c2ccc(CC3(C)NC(=O)N(c4cc(Cl)cc(Cl)c4)C3=O)cc2)c1 (stereo not shown) [Example 203]
270 | COc1ccccc1-c1ccc(CC2(C)NC(=O)N(c3cc(Cl)cc(Cl)c3)C2=O)cc1 (stereo not shown) [Example 194]
250 | C[C@]1(Cc2cccc(-c3ccccc3)c2)NC(=O)N(c2cc(Cl)cc(Cl)c2)C1=O [Example 185]
140 | CCOc1cccc(-c2ccc(CC3(C)NC(=O)N(c4cc(Cl)cc(Cl)c4)C3=O)cc2)c1 (stereo not shown) [Example 198]
1110 | CN1C(=O)N(c2cc(Cl)cc(Cl)c2)C(=O)[C@@]1(C)Cc1ccc(-c2ccc(C(=O)O)cc2)cc1 [Example 186]
3960 | CN1C(=O)N(c2cc(Cl)cc(Cl)c2)C(=O)C1(C)Cc1ccc(S(C)(=O)=O)cc1 (stereo not shown) [Example 176]
500 | CC1(Cc2ccc(-c3cccc([N+](=O)[O-])c3)cc2)NC(=O)N(c2cc(Cl)cc(Cl)c2)C1=O (stereo not shown) [Example 204]
1070 | COc1cccc(CC2(C)C(=O)N(c3cc(Cl)cc(Cl)c3)C(=O)N2C)c1 (stereo not shown) [Example 165]
680 | CC1(Cc2ccc(-c3ccc(Cl)cc3Cl)cc2)NC(=O)N(c2cc(Cl)cc(Cl)c2)C1=O (stereo not shown) [Example 201]
650 | CC1(Cc2ccc(-c3ccc(C(F)(F)F)cc3)cc2)NC(=O)N(c2cc(Cl)cc(Cl)c2)C1=O (stereo not shown) [Example 208]
290 | CCOc1ccccc1-c1ccc(CC2(C)NC(=O)N(c3cc(Cl)cc(Cl)c3)C2=O)cc1 (stereo not shown) [Example 193]
~1000 | Cc1ccc(-c2ccc(CC3(C)NC(=O)N(c4cc(Cl)cc(Cl)c4)C3=O)cc2)cc1[N+](=O)[O-] (stereo not shown) [Example 192]
730 | CC1(Cc2ccc(-c3cccc(Br)c3)cc2)NC(=O)N(c2cc(Cl)cc(Cl)c2)C1=O (stereo not shown) [Example 206]
190 | Cc1ccccc1-c1ccc(CC2(C)NC(=O)N(c3cc(Cl)cc(Cl)c3)C2=O)cc1 (stereo not shown) [Example 197]
230 | CC1(Cc2ccc(-c3cccc(Cl)c3)cc2)NC(=O)N(c2cc(Cl)cc(Cl)c2)C1=O (stereo not shown) [Example 202]
20 | Cc1ccc(CC2(C)C(=O)N(c3cc(Cl)cc(Cl)c3)C(=O)N2C)cc1 (stereo not shown) [Example 170]
1170 | CN1C(=O)N(c2cc(Cl)cc(Cl)c2)C(=O)C1C(O)c1ccccc1 (stereo not shown) [Example 178]
560 | CC1(Cc2ccc(-c3ccc(Cl)cc3)cc2)NC(=O)N(c2cc(Cl)cc(Cl)c2)C1=O (stereo not shown) [Example 205]
90 | CC1(Cc2ccc(-c3ccsc3)cc2)NC(=O)N(c2cc(Cl)cc(Cl)c2)C1=O (stereo not shown) [Example 196]
90 | CC1(Cc2ccc(-c3ccccc3F)cc2)NC(=O)N(c2cc(Cl)cc(Cl)c2)C1=O (stereo not shown) [Example 200]
